According to ChEMBL document CHEMBL1649565, “Besifloxacin, a novel fluoroquinolone, has broad-spectrum in vitro activity against aerobic and anaerobic bacteria” (Antimicrob Agents Chemother, 2009):
Values after ≈ are worked out from the molar mass of the structure shown. Active and inactive are the calls of the source. The calls are words filed in the database; no cut-off is given here.

Legend:
Format in all cases: functional
Streptococcus anginosus [1] = assay: Antibacterial activity against Streptococcus anginosus assessed as percent susceptible isolates by CLSI M100-S18 method
Streptococcus salivarius [2] = assay: Antibacterial activity against Streptococcus salivarius by CLSI M100-S18 method
Streptococcus pneumoniae [3] = assay: Antibacterial activity against levofloxacin-susceptible Streptococcus pneumoniae by CLSI M100-S18 method
[4] = Antibacterial activity against Lancefield Streptococcus sp. 'group G' by CLSI M100-S18 method
Streptococcus sanguinis [5] = assay: Antibacterial activity against Streptococcus sanguinis assessed as percent susceptible isolates by CLSI M100-S18 method
Streptococcus pneumoniae [6] = assay: Antibacterial activity against levofloxacin susceptible Streptococcus pneumoniae assessed as percent susceptible isolates by CLSI M100-S18 method
Streptococcus sp. = assay: Antibacterial activity against Lancefield Streptococcus sp. group F by CLSI M100-S18 method
[7] = tested on: Streptococcus constellatus; assay: Antibacterial activity against Streptococcus constellatus by CLSI M100-S18 method
Listeria monocytogenes [8] = assay: Antibacterial activity against Listeria monocytogenes assessed as percent susceptible isolates by CLSI M100-S18 method
Streptococcus mitis [9] = assay: Antibacterial activity against Streptococcus mitis by CLSI M100-S18 method
[10] = Antibacterial activity against Lancefield Streptococcus sp. 'group C' by CLSI M100-S18 method
Streptococcus mitis [11] = assay: Antibacterial activity against Streptococcus mitis assessed as percent susceptible isolates by CLSI M100-S18 method
Haemophilus influenzae [12] = assay: Antibacterial activity against non-ciprofloxacin-susceptible Haemophilus influenzae by CLSI M7-A7 method
Neisseria meningitidis [13] = assay: Antibacterial activity against Neisseria meningitidis by CLSI M7-A7 method
Streptococcus salivarius [14] = assay: Antibacterial activity against Streptococcus salivarius assessed as percent susceptible isolates by CLSI M100-S18 method
Streptococcus equinus [15] = assay: Antibacterial activity against Streptococcus bovis assessed as percent susceptible isolates by CLSI M100-S18 method
Streptococcus oralis [16] = assay: Antibacterial activity against Streptococcus oralis assessed as percent susceptible isolates by CLSI M100-S18 method
Streptococcus anginosus [17] = assay: Antibacterial activity against Streptococcus anginosus by CLSI M100-S18 method
Streptococcus oralis [18] = assay: Antibacterial activity against Streptococcus oralis by CLSI M100-S18 method
Haemophilus influenzae [19] = assay: Antibacterial activity against ciprofloxacin-susceptible Haemophilus influenzae by CLSI M7-A7 method
[20] = tested on: Streptococcus intermedius; assay: Antibacterial activity against Streptococcus intermedius assessed as percent susceptible isolates by CLSI M100-S18 method
Streptococcus pyogenes = assay: Antibacterial activity against Streptococcus pyogenes by CLSI M100-S18 method
Neisseria meningitidis [21] = assay: Antibacterial activity against Neisseria meningitidis assessed as percent susceptible isolates by CLSI M7-A7 method
Streptococcus sanguinis [22] = assay: Antibacterial activity against Streptococcus sanguinis by CLSI M100-S18 method
[23] = tested on: Streptococcus constellatus; assay: Antibacterial activity against Streptococcus constellatus assessed as percent susceptible isolates by CLSI M100-S18 method
Streptococcus pneumoniae [24] = assay: Antibacterial activity against non-levofloxacin susceptible Streptococcus pneumoniae by CLSI M100-S18 method
[25] = tested on: Streptococcus intermedius; assay: Antibacterial activity against Streptococcus intermedius by CLSI M100-S18 method
Haemophilus influenzae [26] = assay: Antibacterial activity against ciprofloxacin-susceptible Haemophilus influenzae assessed as percent susceptible isolates by CLSI M7-A7 method
Streptococcus equinus [27] = assay: Antibacterial activity against Streptococcus bovis by CLSI M100-S18 method
Streptococcus pneumoniae [28] = assay: Antibacterial activity against non-levofloxacin susceptible Streptococcus pneumoniae assessed as percent susceptible isolates by CLSI M100-S18 method
Haemophilus influenzae [29] = assay: Antibacterial activity against non-ciprofloxacin-susceptible Haemophilus influenzae assessed as percent susceptible isolates by CLSI M7-A7 method
Listeria monocytogenes [30] = assay: Antibacterial activity against Listeria monocytogenes by CLSI M100-S18 method

CC1(C)S[C@@H]2[C@H](NC(=O)Cc3ccccc3)C(=O)N2[C@H]1C(=O)O [PENICILLIN G]
Activity (Streptococcus anginosus [1]): 53.2% | MIC50 (Streptococcus salivarius [2]): 16 µg/mL (≈ 47.8 µM) | MIC90 (Streptococcus salivarius [2]): 32 µg/mL (≈ 95.7 µM) | MIC (Streptococcus pneumoniae [3]): ≤ 0.06 µg/mL | MIC50 (Streptococcus pneumoniae [3]): ≤ 0.06 µg/mL | MIC90 (Streptococcus pneumoniae [3]): 0.5 µg/mL (≈ 1.5 µM) | MIC50 [4]: 8 µg/mL (≈ 23.9 µM) | MIC90 [4]: 16 µg/mL (≈ 47.8 µM) | Activity (Streptococcus sanguinis [5]): 53.2% | Activity (Streptococcus pneumoniae [6]): 100% | MIC50 (Streptococcus sp.): 8 µg/mL (≈ 23.9 µM) | MIC90 (Streptococcus sp.): 16 µg/mL (≈ 47.8 µM) | MIC50 [7]: 16 µg/mL (≈ 47.8 µM) | MIC90 [7]: 32 µg/mL (≈ 95.7 µM) | Activity (Listeria monocytogenes [8]): 100% | MIC50 (Streptococcus mitis [9]): 16 µg/mL (≈ 47.8 µM) | MIC90 (Streptococcus mitis [9]): 32 µg/mL (≈ 95.7 µM) | MIC50 [10]: 8 µg/mL (≈ 23.9 µM) | MIC90 [10]: 16 µg/mL (≈ 47.8 µM) | Activity (Streptococcus mitis [11]): 53.2% | MIC50 (Haemophilus influenzae [12]): 1 µg/mL (≈ 2.99 µM) | MIC90 (Haemophilus influenzae [12]): 2 µg/mL (≈ 5.98 µM) | MIC (Neisseria meningitidis [13]): ≤ 0.06 µg/mL | MIC50 (Neisseria meningitidis [13]): ≤ 0.06 µg/mL | MIC90 (Neisseria meningitidis [13]): 0.12 µg/mL (≈ 0.359 µM) | Activity (Streptococcus salivarius [14]): 53.2% | Activity (Streptococcus equinus [15]): 53.2% | Activity (Streptococcus oralis [16]): 53.2% | MIC50 (Streptococcus anginosus [17]): 0.06 µg/mL (≈ 0.179 µM) | MIC90 (Streptococcus anginosus [17]): 1 µg/mL (≈ 2.99 µM) | MIC50 (Streptococcus oralis [18]): 16 µg/mL (≈ 47.8 µM) | MIC90 (Streptococcus oralis [18]): 32 µg/mL (≈ 95.7 µM) | MIC50 (Haemophilus influenzae [19]): 0.5 µg/mL (≈ 1.5 µM) | MIC90 (Haemophilus influenzae [19]): > 4 µg/mL | Activity [20]: 53.2% | MIC (Streptococcus pyogenes): ≤ 0.015 µg/mL | MIC50 (Streptococcus pyogenes): ≤ 0.015 µg/mL | MIC90 (Streptococcus pyogenes): ≤ 0.015 µg/mL | Activity (Neisseria meningitidis [21]): 50% | MIC50 (Streptococcus sanguinis [22]): 16 µg/mL (≈ 47.8 µM) | MIC90 (Streptococcus sanguinis [22]): 32 µg/mL (≈ 95.7 µM) | Activity [23]: 53.2% | MIC50 (Streptococcus pneumoniae [24]): 0.12 µg/mL (≈ 0.359 µM) | MIC90 (Streptococcus pneumoniae [24]): 2 µg/mL (≈ 5.98 µM) | MIC50 [25]: 16 µg/mL (≈ 47.8 µM) | MIC90 [25]: 32 µg/mL (≈ 95.7 µM) | Activity (Haemophilus influenzae [26]): inactive | MIC50 (Streptococcus equinus [27]): 16 µg/mL (≈ 47.8 µM) | MIC90 (Streptococcus equinus [27]): 32 µg/mL (≈ 95.7 µM) | Activity (Streptococcus pneumoniae [28]): 100% | Activity (Haemophilus influenzae [29]): inactive | MIC50 (Listeria monocytogenes [30]): 0.25 µg/mL (≈ 0.748 µM) | MIC90 (Listeria monocytogenes [30]): 0.25 µg/mL (≈ 0.748 µM)
